pIC50: −log10 of the molar value. Read-outs that look alike come from different tables or passages of the source.
Key:
[1] = molecular target: T1, Recombinant STAT3 protein (STAT3 (G127-I722)) (Homo sapiens, UniProt P40763); test: STAT3 Fluorescence Polarization (FP) Assay; format: binding; settings: probe 5-FAM-GpYLPQTV-NH2 2 nM, 45-minute incubation
T1 construct: Recombinant STAT3 protein (STAT3 (G127-I722))
Summary of the method: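 Compounds in serial dilution receive a premix of STAT3 (G127-I722, 25 nM) and fluorescent phosphotyrosine peptide 5-FAM-GpYLPQTV-NH2 (2 nM) at pH 7.4. After 45 min at room temperature, FP is measured and IC50 derived by nonlinear regression.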

[2] = molecular target: T2, Recombinant STAT6 protein (STAT6 (W123-T658)) (Homo sapiens, UniProt P42226); test: STAT6 Fluorescence Polarization (FP) Assay; format: binding; settings: probe 5-FAM-Ap[…]-NH2 2 nM, 45-minute incubation
T2 construct: Recombinant STAT6 protein (STAT6 (W123-T658))
T2 sequence (P42226 123-658): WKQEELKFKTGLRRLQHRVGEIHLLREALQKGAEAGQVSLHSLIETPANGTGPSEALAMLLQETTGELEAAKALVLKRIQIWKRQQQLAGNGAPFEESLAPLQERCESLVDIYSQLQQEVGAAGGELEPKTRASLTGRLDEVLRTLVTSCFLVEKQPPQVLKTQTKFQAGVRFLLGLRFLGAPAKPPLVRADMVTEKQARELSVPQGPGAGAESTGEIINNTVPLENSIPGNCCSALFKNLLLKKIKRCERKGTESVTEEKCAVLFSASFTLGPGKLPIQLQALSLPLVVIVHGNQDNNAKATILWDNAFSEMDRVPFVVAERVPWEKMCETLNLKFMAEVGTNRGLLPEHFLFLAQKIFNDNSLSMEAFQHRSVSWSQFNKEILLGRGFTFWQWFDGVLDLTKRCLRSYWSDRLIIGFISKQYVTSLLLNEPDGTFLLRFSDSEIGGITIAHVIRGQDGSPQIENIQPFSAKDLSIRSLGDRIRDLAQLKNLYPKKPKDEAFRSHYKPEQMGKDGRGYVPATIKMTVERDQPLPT
Summary of the method: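 Protein-probe mix (250 nM STAT6 W123-T658, 2 nM 5-FAM-pTyr peptide) in 10 mM HEPES pH 7.4, 50 mM NaCl, 1 mM EDTA, 0.05% Tween 20, 2 mM DTT; added to compound dilution series, 1% DMSO final; 45 min RT; FP read; IC50 via nonlinear regression.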

[3] = STAT3 (G127-I722) 25 nM, read-out: STAT3 (FP assay IC50 class)
[4] = STAT6 (W123-T658) 250 nM, read-out: STAT6 (FP assay IC50 class)
[5] = STAT3 25 nM, read-out: STAT3 (FP assay IC50)
[6] = STAT6 250 nM, read-out: STAT6 (FP assay IC50)

T1 sequence (P40763 127-722): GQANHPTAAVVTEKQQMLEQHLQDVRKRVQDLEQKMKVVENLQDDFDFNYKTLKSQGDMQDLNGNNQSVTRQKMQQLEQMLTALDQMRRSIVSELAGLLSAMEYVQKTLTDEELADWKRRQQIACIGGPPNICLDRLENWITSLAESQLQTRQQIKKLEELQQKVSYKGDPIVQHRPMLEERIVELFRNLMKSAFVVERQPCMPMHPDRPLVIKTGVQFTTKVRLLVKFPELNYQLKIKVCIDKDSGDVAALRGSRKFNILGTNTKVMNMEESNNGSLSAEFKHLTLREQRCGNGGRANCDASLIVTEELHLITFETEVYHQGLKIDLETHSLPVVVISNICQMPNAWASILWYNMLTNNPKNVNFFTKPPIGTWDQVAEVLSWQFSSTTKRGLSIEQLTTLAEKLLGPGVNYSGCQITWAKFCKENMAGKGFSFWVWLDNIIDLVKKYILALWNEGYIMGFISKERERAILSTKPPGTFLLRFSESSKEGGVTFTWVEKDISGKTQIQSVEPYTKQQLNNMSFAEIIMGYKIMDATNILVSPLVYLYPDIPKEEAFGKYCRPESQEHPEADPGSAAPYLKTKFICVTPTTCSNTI

Compound | pIC50 [1, 3] | pIC50 [2, 4] | pIC50 [1, 5] | pIC50 [2, 6]
O=C(N[C@H]1CCC[C@H]2CC[C@@H](C(=O)N3CC(c4cc(O)ccn4)C3)N2C1=O)c1cc2cc(CP(=O)(O)O)ccc2s1 [Compound 543, ((2-(((3S,6S,9aS)-3-(3-(4-hydroxypyridin-2-yl)azetidine-1-carbonyl)-5-oxooctahydro-1H-pyrrolo[1,2-a]azepin-6-yl)carbamoyl)benzo[b]thiophen-5-yl)methyl)phosphonic acid] | 5.00 to 6.00 | 4.52 to 5.52 |  | 
O=C(N[C@H]1CCCCC[C@H]2[C@H](O)C[C@@H](C(=O)N3CC(C(=O)N4CCOCC4)C3)N2C1=O)c1cc2cc(C(F)(F)P(=O)(O)O)ccc2s1 [Compound 77, (difluoro(2-(((1R,3S,6S, 11aS)-1-hydroxy-3-(3-(morpholine-4-carbonyl)azetidine-1-carbonyl)-5-oxodecahydro-1H-pyrrolo[1,2-a]azonin-6-yl)carbamoyl)benzo[b]thiophen-5-yl)methyl) phosphonic acid] |  |  | 6.00 to 7.00 | 4.52 to 5.52
O=C(N[C@H]1CCC[C@H]2CC[C@@H](C(=O)N3CC(c4cc5cccnc5cc4F)C3)N2C1=O)c1cc2cc(C(F)P(=O)(O)O)ccc2s1 (stereo partly drawn) [Compound 560, (fluoro(2-(((3S,6S,9aS)-3-(3-(7-fluoroquinolin-6-yl)azetidine-1-carbonyl)-5-oxooctahydro-1H-pyrrolo[1,2-a]azepin-6-yl)carbamoyl)benzo[b]thiophen-5-yl)methyl)phosphonic acid] | 5.00 to 6.00 | 4.52 to 5.52 |  | 
N#C[C@H]1CN(C(=O)[C@@H]2CC[C@@H]3CCCC[C@H](NC(=O)c4cc5cc(C(F)(F)P(=O)(O)O)ccc5s4)C(=O)N32)C[C@@H]1CC1CCOCC1 (racemic) [Compound 88, ((2-(((3S,6S,10aS)-3-(rel-(trans)-3-cyano-4-((tetrahydro-2H-pyran-4-yl)methyl)pyrrolidine-1-carbonyl)-5-oxodecahydropyrrolo [1,2-a]azocin-6-yl)carbamoyl)benzo[b]thiophen-5-yl)difluoromethyl) phosphonic acid] |  |  | 5.00 to 6.00 | 5.52 to 6.52
N#C[C@H]1CN(C(=O)[C@@H]2CC[C@@H]3CCCCC[C@H](NC(=O)c4cc5cc(C(F)(F)P(=O)(O)O)ccc5s4)C(=O)N32)C[C@@H]1c1ccccc1 (racemic) [Compound 75, ((2-(((3S,6S,11aS)-3-(rel-(trans)-3-cyano-4-phenylpyrrolidine-1-carbonyl)-5-oxodecahydro-1H-pyrrolo[1,2-a]azonin-6-yl)carbamoyl)benzo[b]thiophen-5-yl)difluoromethyl) phosphonic acid] |  |  | 5.00 to 6.00 | ≥ 6.52
C[C@H]1C[C@H]2CC[C@@H](C(=O)N3CC(c4cnccc4N(C)C)C3)N2C(=O)[C@@H](NC(=O)c2cc3cc(CP(=O)(O)O)ccc3s2)C1 [Compound 638, ((2-(((3S,6S,8R,9aR)-3-(3-(4-(dimethylamino)pyridin-3-yl)azetidine-1-carbonyl)-8-methyl-5-oxooctahydro-1H-pyrrolo[1,2-a]azepin-6-yl)carbamoyl)benzo [b]thiophen-5-yl)methyl) phosphonic acid] | > 7.00 | 4.52 to 5.52 |  | 
Cc1ccncc1C1CN(C(=O)[C@@H]2CC[C@@H]3CC(C)C[C@H](NC(=O)c4cc5cc(CP(=O)(O)O)ccc5s4)C(=O)N32)C1 (stereo partly drawn) [Compound 500, ((2-(((3S,6S,9aR)-8-methyl-3-(3-(4-methylpyridin-3-yl)azetidine-1-carbonyl)-5-oxooctahydro-1H-pyrrolo[1,2-a]azepin-6-yl)carbamoyl)benzo[b]thiophen-5-yl)methyl)phosphonic acid] | 6.00 to 7.00 | 4.52 to 5.52 |  | 
O=C(N[C@H]1CCC[C@H]2CC[C@@H](C(=O)N[C@@H]3CC[C@@H](O)C3)N2C1=O)c1cc2cc(C(F)P(=O)(O)O)ccc2s1 (stereo partly drawn) [Compound 537, (fluoro(2-(((3S,6S,9aS)-3-(((1R,3R)-3-hydroxycyclopentyl)carbamoyl)-5-oxooctahydro-1H-pyrrolo[1,2-a]azepin-6-yl)carbamoyl)benzo[b]thiophen-5-yl)methyl)phosphonic acid] | 5.00 to 6.00 | 4.52 to 5.52 |  | 

Second part, the compound after the results:

pIC50 [1, 3] | pIC50 [2, 4] | pIC50 [1, 5] | pIC50 [2, 6] | Compound
5.00 to 6.00 | 4.52 to 5.52 |  |  | N#Cc1ccnc(C2CN(C(=O)[C@@H]3CC[C@@H]4CCC[C@H](NC(=O)c5cc6cc(CP(=O)(O)O)ccc6s5)C(=O)N43)C2)n1 [Compound 660, ((2-(((3S,6S,9aS)-3-(3-(4-cyanopyrimidin-2-yl)azetidine-1-carbonyl)-5-oxooctahydro-1H-pyrrolo[1,2-a]azepin-6-yl)carbamoyl)benzo [b]thiophen-5-yl)methyl) phosphonic acid]
6.00 to 7.00 | 4.52 to 5.52 |  |  | Cc1nnc([C@H]2[C@H](c3ccccc3)CN2C(=O)[C@@H]2CC[C@@H]3CCC[C@H](NC(=O)c4cc5cc(C(F)P(=O)(O)O)ccc5s4)C(=O)N32)o1 (single isomer, unassigned) [Compound 674]
6.00 to 7.00 | ≥ 6.52 |  |  | N#C[C@H]1CN(C(=O)[C@@H]2CC[C@@H]3CCCC[C@H](NC(=O)c4cc5cc(C(F)(F)P(=O)(O)O)ccc5s4)C(=O)N32)C[C@@H]1c1cc[nH]c(=O)c1 (single isomer, unassigned) [Compound 875]
6.00 to 7.00 | 5.52 to 6.52 |  |  | Cn1cc(C2CN(C(=O)[C@@H]3CC[C@@H]4CCC[C@H](NC(=O)c5cc6cc(C(F)P(=O)(O)O)ccc6s5)C(=O)N43)C2)c(C#N)n1 (stereo partly drawn) [Compound 734, ((2-(((3S,6S,9aS)-3-(3-(3-cyano-1-methyl-1H-pyrazol-4-yl)azetidine-1-carbonyl)-5-oxooctahydro-1H-pyrrolo[1,2-a]azepin-6-yl)carbamoyl)benzo [b]thiophen-5-yl)fluoromethyl) phosphonic acid]
6.00 to 7.00 | 5.52 to 6.52 |  |  | O=C(N[C@H]1CCCC[C@H]2CC[C@@H](C(=O)NCc3ccc4nccnc4c3)N2C1=O)c1cc2cc(C(F)(F)P(=O)(O)O)ccc2s1 [Compound 825, (difluoro(2-(((3S,6S,10aS)-5-oxo-3-((quinoxalin-6-ylmethyl)carbamoyl)decahydropyrrolo [1,2-a]azocin-6-yl)carbamoyl)benzo [b]thiophen-5-yl)methyl) phosphonic acid]
5.00 to 6.00 | 5.52 to 6.52 |  |  | COc1cc(C2CN(C(=O)C3CCC4CCCCC(NC(=O)c5cc6cc(C(F)(F)P(=O)(O)O)ccc6s5)C(=O)N43)CC2C#N)cc(C)n1 (mixture of isomers) [Compound 874, ((2-(((3S,6S,10aS)-3-((rel-trans)-3-cyano-4-(2-methoxy-6-methylpyridin-4-yl)pyrrolidine-1-carbonyl)-5-oxodecahydropyrrolo[1,2-a]azocin-6-yl)carbamoyl)benzo [b]thiophen-5-yl)difluoromethyl) phosphonic acid]
> 7.00 | 5.52 to 6.52 |  |  | O=C(N[C@H]1CCC[C@H]2CC[C@@H](C(=O)N3CC(c4cnccc4N4C[C@H]5C[C@@H]4CO5)C3)N2C1=O)c1cc2cc(C(F)P(=O)(O)O)ccc2s1 (stereo partly drawn) [Compound 694, ((2-(((3S,6S,9aS)-3-(3-(4-((1R,4R)-2-oxa-5-azabicyclo[2.2.1]heptan-5-yl)pyridin-3-yl)azetidine-1-carbonyl)-5-oxooctahydro-1H-pyrrolo[1,2-a]azepin-6-yl)carbamoyl)benzo [b]thiophen-5-yl)fluoromethyl) phosphonic acid]
> 7.00 | 5.52 to 6.52 |  |  | O=C(N[C@H]1CCC[C@H]2CC[C@@H](C(=O)N3CC(c4cnccc4N4CCC4)C3)N2C1=O)c1cc2cc([C@H](F)P(=O)(O)O)ccc2s1 (single isomer, unassigned) [Compound 742]
6.00 to 7.00 | 4.52 to 5.52 |  |  | CN(C)c1nccc(C2CN(C(=O)[C@@H]3CC[C@@H]4CCC[C@H](NC(=O)c5cc6cc([C@@H](F)P(=O)(O)O)ccc6s5)C(=O)N43)C2)n1 (single isomer, unassigned) [Compound 710]
6.00 to 7.00 | ≥ 6.52 |  |  | O=C(N[C@H]1CCCC[C@H]2CC[C@@H](C(=O)N3CCC(c4cc[nH]c(=O)c4)C3)N2C1=O)c1ccc2ccc(C(F)(F)P(=O)(O)O)cc2c1 (stereo partly drawn) [Compound 866, (difluoro(7-(((3S,6S,10aS)-5-oxo-3-(3-(2-oxo-1,2-dihydropyridin-4-yl)pyrrolidine-1-carbonyl)decahydropyrrolo[1,2-a]azocin-6-yl)carbamoyl)naphthalen-2-yl)methyl) phosphonic acid]

— patent publication US20250215029A1 (Recludix Pharma, Inc., priority 2022, published 2025)
